The target in the experiment is T1, recombinant human NaV1.8 stably transfected HEK cells (Homo sapiens, UniProt Q9Y5Y9).
T1 construct: expressed in transfected cells; host or cells: HEK cells, stably transfected
Kind of experiment: Compound profiling on NaV1.8, human NaV1.8 cell line, SyncroPatch384PE automated patch clamp assay (Example 115, third set of compounds, Table 27). The experiment is classed as cell-based. Conditions: human NaV1.8 HEK cells, Table 27 (third set of compounds). The method, then:
Compound Profiling on NaV1.8 Human NaV1.8 Cell Line SyncroPatch384PE Assay
Compounds were tested on recombinant human NaV1.8 stably transfected HEK cells using the SyncroPatch384PE system, an automated patch clamp device. Cells were cultured at 37° C./5% CO2 in DMEM medium supplemented with GlutaMAX I, NEAA 1%, FBS 10% and seeded in T175 flasks. Cells were cultured at 30° C. one day prior to recording sodium currents. On the day of the recordings, cells were detached with 0.05% Trypsin-EDTA, resuspended in serum free DMEM medium and placed into the SyncroPatch384PE 6° C. pre-cooled cell hotel and shaken at 200 rpm. Intracellular solution (IC) contained, in mM: 10, CsCl; 110, CsF; 20, EGTA; 10, HEPES. Extracellular solution (EC) contained, in mM: 140, NaCl; 4, KCl; 5, Glucose; 10, HEPES; 2, CaCl2; 1, MgCl2. Washing solution contained, in mM: 40, NMDG; 100, NaCl; 4, KCl; 10, Glucose; 10, HEPES; 5, CaCl2; 1, MgCl2.
Compounds were tested in quadruplicates in 0.1% DMSO and 0.030% Pluronic Acid. Compounds were diluted 1:3.33 in EC solution to create a 10-point concentration response curve, spanning a final concentration range from 10-0.0002 μM in the assay plate. Compounds with low nM potency were retested using a lower concentration range (1-0.00002 μM). Each plate contained tetracaine and another tool compound as positive controls. Up to 7 compounds were tested on one plate. 150 μM tetracaine and 0.1% DMSO were used as high and low controls, respectively.
Whole cell patch clamp recordings were conducted according to Nanion's standard procedure for SyncroPatch384PE®. Cells were held at a holding potential of −120 mV. A depolarization step to 10 mV for 30 ms was applied (P1 measurement), followed by a hyperpolarization step to −100 mV for 100 ms. An inactivation step at −40 mV for 10 sec was applied before stepping to −100 mV for 20 ms, followed by a step to 10 mV for 30 ms (P2 measurement) and then back to −100 mV for 30 ms. Sweep interval was 15 sec with a sampling rate of 10 kHz. Following establishment of the whole-cell configuration in EC, two washing steps with reference buffer were performed to stabilize the baseline. Compounds were then applied by the SynchroPatch into each well and the current was recorded for five minutes in EC, followed by application of tetracaine to achieve full block at the end of the experiment. The potency of the compounds was assessed on two read-outs, resting state block (P1 measurement) or inactivated state block (P2 measurement) to obtain IC50 values. Values were normalized to high (tetracaine) and low (DMSO) controls.
On the technique in general: Patch clamp records ionic current or voltage across a cell membrane.

Where [1] appears, read: inactivated state block (P2 measurement), read-out: P2 IC50.
[2] abbreviates: resting state block (P1 measurement), read-out: P1 IC50.

This note sets out measurements from US20240336574A1 (LATIGO BIOTHERAPEUTICS, INC., priority 2021, published 2024).

Read-outs that look alike come from different tables or passages of the source.

A word on the IC50: it is the midpoint of a concentration-inhibition curve.

T1 sequence (Q9Y5Y9 whole entry): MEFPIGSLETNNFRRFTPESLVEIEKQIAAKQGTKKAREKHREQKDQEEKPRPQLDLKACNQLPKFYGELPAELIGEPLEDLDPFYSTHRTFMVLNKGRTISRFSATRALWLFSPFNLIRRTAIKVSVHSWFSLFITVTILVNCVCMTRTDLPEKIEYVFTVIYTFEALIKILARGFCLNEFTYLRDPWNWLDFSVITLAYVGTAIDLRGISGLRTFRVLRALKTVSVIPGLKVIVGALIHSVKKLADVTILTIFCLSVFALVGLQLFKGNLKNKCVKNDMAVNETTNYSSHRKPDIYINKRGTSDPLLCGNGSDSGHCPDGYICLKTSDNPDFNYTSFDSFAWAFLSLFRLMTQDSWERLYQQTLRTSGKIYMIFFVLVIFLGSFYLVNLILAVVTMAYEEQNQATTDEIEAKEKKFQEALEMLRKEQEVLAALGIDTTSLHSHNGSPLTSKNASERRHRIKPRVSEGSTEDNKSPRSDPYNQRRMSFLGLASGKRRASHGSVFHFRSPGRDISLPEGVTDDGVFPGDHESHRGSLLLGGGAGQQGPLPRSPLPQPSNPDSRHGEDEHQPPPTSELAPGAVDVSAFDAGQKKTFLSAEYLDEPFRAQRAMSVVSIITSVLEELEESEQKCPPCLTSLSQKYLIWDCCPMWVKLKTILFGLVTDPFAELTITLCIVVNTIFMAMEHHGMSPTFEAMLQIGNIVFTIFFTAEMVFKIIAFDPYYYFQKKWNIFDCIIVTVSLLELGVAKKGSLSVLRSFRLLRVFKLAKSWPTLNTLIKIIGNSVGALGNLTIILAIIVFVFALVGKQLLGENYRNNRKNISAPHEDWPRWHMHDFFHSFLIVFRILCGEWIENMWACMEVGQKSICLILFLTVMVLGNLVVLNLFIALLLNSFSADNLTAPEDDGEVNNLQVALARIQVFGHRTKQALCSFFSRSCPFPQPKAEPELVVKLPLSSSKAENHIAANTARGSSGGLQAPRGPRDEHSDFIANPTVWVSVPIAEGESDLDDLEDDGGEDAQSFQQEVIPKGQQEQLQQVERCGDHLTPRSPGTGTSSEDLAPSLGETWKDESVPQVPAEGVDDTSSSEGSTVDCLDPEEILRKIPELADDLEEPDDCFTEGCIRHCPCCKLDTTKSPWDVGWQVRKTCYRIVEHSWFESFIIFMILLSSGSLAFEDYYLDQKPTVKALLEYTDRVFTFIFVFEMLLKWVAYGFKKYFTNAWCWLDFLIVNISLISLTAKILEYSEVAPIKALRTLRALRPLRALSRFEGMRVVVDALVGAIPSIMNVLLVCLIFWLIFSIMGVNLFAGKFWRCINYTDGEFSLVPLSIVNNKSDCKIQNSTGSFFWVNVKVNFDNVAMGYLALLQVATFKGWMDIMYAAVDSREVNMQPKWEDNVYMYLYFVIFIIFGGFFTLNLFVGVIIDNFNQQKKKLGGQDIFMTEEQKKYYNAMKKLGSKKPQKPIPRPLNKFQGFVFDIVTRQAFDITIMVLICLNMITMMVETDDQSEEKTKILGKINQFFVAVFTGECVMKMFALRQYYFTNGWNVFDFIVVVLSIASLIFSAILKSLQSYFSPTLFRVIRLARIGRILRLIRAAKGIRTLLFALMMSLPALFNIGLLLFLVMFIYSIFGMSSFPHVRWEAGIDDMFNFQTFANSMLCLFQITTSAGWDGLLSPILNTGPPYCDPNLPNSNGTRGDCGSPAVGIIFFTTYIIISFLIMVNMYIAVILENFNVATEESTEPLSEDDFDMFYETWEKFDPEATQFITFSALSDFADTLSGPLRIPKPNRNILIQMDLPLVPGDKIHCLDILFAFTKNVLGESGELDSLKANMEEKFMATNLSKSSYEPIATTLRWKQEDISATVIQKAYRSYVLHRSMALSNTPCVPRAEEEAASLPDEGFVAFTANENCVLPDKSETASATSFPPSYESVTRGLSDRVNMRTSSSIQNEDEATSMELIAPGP

As for `COc1ccc(F)cc1Oc1nnc(C(F)(F)F)cc1C(=O)Nc1cccc(C(N)=O)c1` [Compound 80], the IC50 was 501 to 1000 nM under setting [1] and 501 to 1000 nM under setting [2].
In the case of `COc1ccc(F)cc1Oc1nnc(C(F)(F)F)cc1C(=O)Nc1cccc(S(C)(=O)=O)c1` [Compound 81], the IC50 by setting is: under setting [1], 1000 to 5000 nM; under setting [2], 201 to 500 nM.
The like results for `Cc1cc(Br)ccc1Oc1nnc(C(F)(F)F)cc1C(=O)Nc1cccc(S(C)(=O)=O)c1` [Compound 82] were, in that order, not above 200 nM and not above 200 nM.
The like results for `Cc1cc(Br)ccc1Oc1nnc(C(F)(F)F)cc1C(=O)Nc1ccc(C(N)=O)cc1` [Compound 83] were, in that order, not above 200 nM and not above 200 nM.
Consider `NC(=O)c1cncc(NC(=O)c2cc(C(F)(F)F)nnc2Oc2cc(F)ccc2Cl)c1` [Compound 84], for which the IC50 runs as follows: under setting [1], more than 5000 nM; under setting [2], more than 5000 nM.
Consider `Cc1cc(F)ccc1Oc1nnc(C(F)(F)F)cc1C(=O)Nc1cccc(-c2cc[nH]n2)c1` [Compound 85], for which the half-inhibitory concentration (IC50) under setting [1] is more than 5000 nM and the IC50 under setting [2] was more than 5000 nM.
Consider `COc1cc(NC(=O)c2cc(C(F)(F)F)nnc2Oc2ccc(F)cc2C)ccn1` [Compound 86], for which the IC50 by setting is: under setting [1], 501 to 1000 nM; under setting [2], 501 to 1000 nM.
`Cc1cc(C2CC2)ccc1Oc1nnc(C(F)(F)F)cc1C(=O)Nc1cccc(S(C)(=O)=O)c1` [Compound 87]: the IC50 by setting is: under setting [1], not above 200 nM; under setting [2], not above 200 nM.
As for `O=C(Nc1cc[nH]c(=O)c1)c1cc(C(F)(F)F)nnc1Oc1ccc(F)cc1Cl` [Compound 89, 3-(2-Chloro-4-fluorophenoxy)-N-(2-oxo-1,2-dihydropyridin-4-yl)-6-(trifluoromethyl)pyridazine-4-carboxamide], the IC50 by setting is: under setting [1], 1000 to 5000 nM; under setting [2], 1000 to 5000 nM.
Regarding `Cc1c[nH]c(=O)cc1NC(=O)c1cc(C(F)(F)F)nnc1Oc1ccc(F)cc1C` [Compound 90, 3-(4-Fluoro-2-methylphenoxy)-N-(5-methyl-2-oxo-1,2-dihydropyridin-4-yl)-6-(trifluoromethyl)pyridazine-4-carboxamide], the IC50 reads like this: under setting [1], more than 5000 nM; under setting [2], more than 5000 nM.
As to `Cc1cc(F)ccc1Oc1nnc(C(F)(F)F)cc1C(=O)Nc1cc[nH]c(=O)c1C` [Compound 91, 3-(4-Fluoro-2-methylphenoxy)-N-(3-methyl-2-oxo-1,2-dihydropyridin-4-yl)-6-(trifluoromethyl)pyridazine-4-carboxamide], the IC50 reads like this: under setting [1], more than 5000 nM; under setting [2], more than 5000 nM.
In the case of `Cc1cc(F)ccc1Oc1nnc(C(F)(F)F)cc1C(=O)Nc1ccc(=O)[nH]c1C` [Compound 92, 3-(4-Fluoro-2-methylphenoxy)-N-(2-methyl-6-oxo-1,6-dihydropyridin-3-yl)-6-(trifluoromethyl)pyridazine-4-carboxamide], the IC50 is more than 5000 nM under setting [1] and more than 5000 nM under setting [2].
Take `Cc1cc(C(=O)Nc2cccc(S(C)(=N)=O)c2)c(Oc2ccc(F)cc2C)nn1` (stereo not drawn) [Compound 93, 3-(4-Fluoro-2-methyl-phenoxy)-6-methyl-N-[3-(methylsulfonimidoyl)phenyl]pyridazine-4-carboxamide]: the IC50 under setting [1] was more than 5000 nM and the IC50 under setting [2] lay within 1000 to 5000 nM.
Consider `COc1cc(F)ccc1Oc1nnc(C)cc1C(=O)Nc1cccc(S(C)(=N)=O)c1` (stereo not drawn) [Compound 94, 3-(4-Fluoro-2-methoxyphenoxy)-6-methyl-N-(3-(S-methylsulfonimidoyl)phenyl)pyridazine-4-carboxamide], for which the IC50 is, setting by setting: under setting [1], more than 5000 nM; under setting [2], 1000 to 5000 nM.
The like results for `CCOc1cc(F)ccc1Oc1nnc(C)cc1C(=O)Nc1cccc(S(C)(=N)=O)c1` (stereo not drawn) [Compound 95, 3-(2-Ethoxy-4-fluorophenoxy)-6-methyl-N-(3-(S-methylsulfonimidoyl)phenyl)pyridazine-4-carboxamide] were, in that order, more than 5000 nM and more than 5000 nM.
Turning to `CS(=N)(=O)c1cccc(NC(=O)c2cc(C(F)(F)F)nnc2Oc2ccc(F)cc2Cl)c1` (stereo not drawn) [Compound 96, 3-(2-Chloro-4-fluorophenoxy)-N-(3-(S-methylsulfonimidoyl)phenyl)-6-(trifluoromethyl)pyridazine-4-carboxamide], the 50% inhibitory concentration (IC50) is, setting by setting: under setting [1], 501 to 1000 nM; under setting [2], 201 to 500 nM.
Regarding `CS(=N)(=O)c1cc(NC(=O)c2cc(C(F)(F)F)nnc2Oc2ccc(F)cc2Cl)ccn1` (stereo not drawn) [Compound 97], the IC50 by setting is: under setting [1], 1000 to 5000 nM; under setting [2], 1000 to 5000 nM.
Consider `Cc1cc(F)ccc1Oc1nnc(C(F)(F)F)cc1C(=O)Nc1ccc(S(C)(=N)=O)cc1` (stereo not drawn) [Compound 98, 3-(4-Fluoro-2-methylphenoxy)-N-(4-(S-methylsulfonimidoyl)phenyl)-6-(trifluoromethyl)pyridazine-4-carboxamide], for which the IC50 is more than 5000 nM under setting [1] and more than 5000 nM under setting [2].
For `COc1cc(F)ccc1Oc1nnc(C(F)(F)F)cc1C(=O)Nc1cccc(S(C)(=N)=O)c1` (stereo not drawn) [Compound 99, 3-(4-Fluoro-2-methoxyphenoxy)-N-(3-(S-methylsulfonimidoyl)phenyl)-6-(trifluoromethyl)pyridazine-4-carboxamide], the IC50 by setting is: under setting [1], not above 200 nM; under setting [2], not above 200 nM.
Regarding `Cc1cc(F)ccc1Oc1nnc(C(F)(F)F)cc1C(=O)Nc1cccc([S@](C)(=N)=O)c1` [Compound 102, (R)-3-(4-fluoro-2-methylphenoxy)-N-(3-(S-methylsulfonimidoyl)phenyl)-6-(trifluoromethyl)pyridazine-4-carboxamide], the IC50 is, setting by setting: under setting [1], 201 to 500 nM; under setting [2], 501 to 1000 nM.
The like results for `Cc1cc(F)ccc1Oc1nnc(C(F)(F)F)cc1C(=O)Nc1cccc([S@@](C)(=N)=O)c1` [Compound 103, (S)-3-(4-fluoro-2-methylphenoxy)-N-(3-(S-methylsulfonimidoyl)phenyl)-6-(trifluoromethyl)pyridazine-4-carboxamide] were, in that order, 201 to 500 nM and more than 5000 nM.
As to `COc1cc(F)ccc1Oc1nnc(C)cc1C(=O)Nc1cccc(S(C)(=O)=O)c1` [Compound 104], the IC50 under setting [1] was more than 5000 nM and the IC50 under setting [2] is more than 5000 nM.
In the case of `COc1cc(F)ccc1Oc1nnc(C)cc1C(=O)Nc1cccc([S+](C)[O-])c1` (stereo not drawn) [Compound 105], the IC50 by setting is: under setting [1], more than 5000 nM; under setting [2], more than 5000 nM.
Take `Cc1cc(F)ccc1Oc1nnc(C(F)(F)F)cc1C(=O)Nc1ccc(C)c(S(C)(=O)=O)c1` [Compound 106, 3-(4-Fluoro-2-methylphenoxy)-N-(4-methyl-3-(methylsulfonyl)phenyl)-6-(trifluoromethyl)pyridazine-4-carboxamide]: the IC50 under setting [1] is 201 to 500 nM and the IC50 under setting [2] is 201 to 500 nM.
For `COc1cc(F)ccc1Oc1nnc(C(F)(F)F)cc1C(=O)Nc1ccc(C)c(S(C)(=O)=O)c1` [Compound 107, 3-(4-Fluoro-2-methoxyphenoxy)-N-(4-methyl-3-(methylsulfonyl)phenyl)-6-(trifluoromethyl)pyridazine-4-carboxamide], the IC50 is not above 200 nM under setting [1] and not above 200 nM under setting [2].
Turning to `CCOc1cc(F)ccc1Oc1nnc(C)cc1C(=O)Nc1cccc(S(C)(=O)=O)c1` [Compound 108], the IC50 reads like this: under setting [1], more than 5000 nM; under setting [2], more than 5000 nM.
Turning to `Cc1cc(F)ccc1Oc1nnc(C(F)(F)F)cc1C(=O)Nc1ccc(C)c(S(C)(=N)=O)c1` (stereo not drawn) [Compound 109, 3-(4-Fluoro-2-methylphenoxy)-N-(4-methyl-3-(S-methylsulfonimidoyl)phenyl)-6-(trifluoromethyl)pyridazine-4-carboxamide], the IC50 reads like this: under setting [1], 201 to 500 nM; under setting [2], 201 to 500 nM.
On to `CSc1cccc(NC(=O)c2cc(C(F)(F)F)nnc2Oc2ccc(C#N)cc2C)c1` [Compound 110], for which the IC50 is more than 5000 nM under setting [1] and more than 5000 nM under setting [2].
As to `CSc1cccc(NC(=O)c2cc(C(F)(F)F)nnc2Oc2cc(F)ccc2Cl)c1` [Compound 111], the IC50 reads like this: under setting [1], more than 5000 nM; under setting [2], more than 5000 nM.
`Cc1cc(C#N)ccc1Oc1nnc(C(F)(F)F)cc1C(=O)Nc1cccc(S(C)(=N)=O)c1` (stereo not drawn) [Compound 114, 3-(4-Cyano-2-methylphenoxy)-N-(3-(S-methylsulfonimidoyl)phenyl)-6-(trifluoromethyl)pyridazine-4-carboxamide]: the IC50 is not above 200 nM under setting [1] and not above 200 nM under setting [2].
